How the values were obtained:
[1] = system: HCT-116; experiment: Residual PLD activity in human HCT-116 cells at 10 uM measured after 1 hr by amplex red phospholipase D assay as % of control
[2] = system: A549; experiment: Cytotoxicity against human A549 cells assessed as inhibition of cell growth incubated for 48 hrs by WST-1 assay; assay type: functional, cell-based; settings: A549, 48 h
[3] = Inhibition of PLD in human A549 cells measured after 1 hr by amplex red phospholipase D assay; assay type: cell-based
[4] = system: HCT-116; experiment: Cytotoxicity against human HCT-116 cells assessed as inhibition of cell growth incubated for 48 hrs by WST-1 assay; assay type: functional, cell-based; settings: HCT-116, 48 h

C[C@@H](CN1CCC(n2c(=O)[nH]c3cc(Cl)ccc32)CC1)NC(=O)c1ccc2ccccc2c1
level, % of control [1]: 30.4%

COc1ccc(CNC(=O)c2cc3cc(F)ccc3[nH]2)cc1OC
level, % of control [1]: 48%

O=C(Nc1cc(C(F)(F)F)cc(C(F)(F)F)c1)c1cc2cc(C(F)(F)F)ccc2[nH]1
level, % of control [1]: 45.8%

O=C(CCCc1c[nH]c2ccccc12)Nc1cc(C(F)(F)F)cc(C(F)(F)F)c1
level, % of control [1]: 55.5%

O=C(Nc1ccc(F)cc1)c1cc2cc(F)ccc2[nH]1
level, % of control [1]: 53.2%

COc1ccc(NC(=O)c2cc3cc(F)ccc3[nH]2)cc1OC
level, % of control [1]: 52.2%

O=C(Nc1ccc(O)c(O)c1)c1cc2cc(F)ccc2[nH]1
IC50 [2]: > 200 µM
IC50 [3]: 4.31 µM
IC50 [4]: > 50 µM

O=C(Nc1cc(F)cc(F)c1)c1cc2cc(F)ccc2[nH]1
level, % of control [1]: 51.1%

O=C(CCc1c[nH]c2ccccc12)Nc1cccc(F)c1
level, % of control [1]: 50.6%

O=C(Cc1c[nH]c2ccccc12)Nc1ccc(O)c(O)c1
level, % of control [1]: 54.4%

O=C(Cc1c[nH]c2ccccc12)Nc1cc(C(F)(F)F)cc(C(F)(F)F)c1
level, % of control [1]: 53%

O=C(Nc1ccc(O)c(O)c1)c1c[nH]c2ccccc12
level, % of control [1]: 51.1%

O=C(Nc1cccc(C(F)(F)F)c1)c1cc2cc(F)ccc2[nH]1
level, % of control [1]: 47.6%

O=C(Oc1cc(C(F)(F)F)cc(C(F)(F)F)c1)c1cc2cc(F)ccc2[nH]1
level, % of control [1]: 33.4%
IC50 [2]: 50 µM
IC50 [3]: 3.1 µM
IC50 [4]: > 50 µM
